Reference: patent US10730866B2, “Indole derivatives and use thereof” (Purdue Pharma L.P., priority 2014, dated 2020)

Target: human Nav1.7 (Homo sapiens (Human), UniProt Q15858)
Experiment: FLIPR or FLIPR TETRA sodium dye assay for sodium channel blocking activity
Format: cell-based
Conditions: recombinant HEK293 cells expressing human Nav1.7
Experimental: In vitro assays were performed in a recombinant cell line expressing cDNA encoding the alpha subunit (Nav1.7, SCN9a, PN1, NE) of human Nav1.7 (Accession No. NM_002977). The cell line was provided by investigators at Yale University (Cummins et al, J. Neurosci. 18(23): 9607-9619 (1998)). For dominant selection of the Nav1.7-expressing clones, the expression plasmid co-expressed the neomycin resistance gene. The cell line was constructed in the human embryonic kidney cell line, HEK293, under the influence of the CMV […] promoter, and stable clones were selected using limiting dilution cloning and antibiotic selection using the neomycin analogue, G418. Recombinant beta and gamma subunits were not introduced into this cell line. Additional cell lines expressing recombinant Nav1.7 cloned from other species can also be used, alone or in combination with various beta subunits, gamma subunits or chaperones.
Unless otherwise noted, cell culture reagents were purchased from Mediatech of Herndon, Va. The recombinant Nav1.7/HEK293 cells were routinely cultured in growth medium consisting of Dulbecco's […] essential medium containing 10% fetal bovine serum (FBS, Hyclone, Thermo Fisher Scientific, Logan, Utah), 100 U/mL penicillin, 100 μg/mL streptomycin, 2-4 mM L-glutamine, and […] G418. For natural, non-recombinant cell lines, the selective antibiotic was omitted, and additional media formulations can be applied as needed.
The final buffer consisted of 20 mM Hepes, pH 7.3, 1.261 mM CaCl2, 0.493 mM MgCl2, 0.407 mM Mg(SO)4, 5.33 mM KCl, 0.441 mM KH2PO4, 137 mM NaCl, 0.336 mM Na2HPO4 and […] D-glucose (Hanks et al., Proc. Soc. Exp. Biol. Med. 71:196 (1949)), and the simple formulation was typically the basic buffer throughout the assay (i.e., all wash and addition steps).
The fluorescence indicator used in the primary fluorescence assay was the cell permeant version of CoroNa™ Green (Invitrogen, Molecular Probes, Eugene, Oreg.), a dye that emits light in the fluorescence range (Harootunian et al., J. Biol. Chem. 264(32):19458-19467 (1989)). The intensity of this emission, but not the wavelength range, is increased when the dye is exposed to Na^+ ions, which it can bind with partial selectivity. Cells expressing Nav1.7 or other sodium channels were loaded with the CoroNa™ Green dye immediately in advance of the fluorescence assay, and then, after agonist stimulation, the mobilization of Na^+ ions was detected as the Na^+ ions flowed from the extracellular fluid into the cytoplasm through the activated sodium channel pores. The dye was stored in the dark as a lyophilized powder, and then an aliquot was dissolved immediately before the cell loading procedure, according to the instructions of the manufacturer, to a stock concentration of 10 mM in DMSO. It was then diluted in the assay buffer to a 4× concentrated working solution, so that the final concentration of dye in the cell loading buffer was 5 μM.
In the fluorescence assays, two agonists were used in combination, namely 1) veratridine; and 2) the venom from the yellow scorpion, Leiurus quinquestriatus hebraeus. Veratridine is an alkaloid small molecule that facilitates the capture of channel openings by inhibiting inactivation, and the scorpion venom is a natural preparation that includes peptide toxins selective for different subsets of voltage-gated sodium channels. These scorpion toxins inhibit the fast inactivation of their cognate target channels. Stock solutions of the agonists were prepared to 40 mM in DMSO (veratridine) and 1 mg/mL in dH2O (scorpion venom), and then diluted to make a 4× or 2× stock (depending on the particular assay) in assay buffer, the final concentration being 100 μM (veratridine) and 10 μg/mL (scorpion venom). Both of the agonists were purchased from Sigma Aldrich, St. Louis, Mo.
Test compounds were dissolved in DMSO to yield 10 mM stock solutions. […]

Sequence of human Nav1.7 (Q15858 other isoform, or with tags, fused parts or gaps): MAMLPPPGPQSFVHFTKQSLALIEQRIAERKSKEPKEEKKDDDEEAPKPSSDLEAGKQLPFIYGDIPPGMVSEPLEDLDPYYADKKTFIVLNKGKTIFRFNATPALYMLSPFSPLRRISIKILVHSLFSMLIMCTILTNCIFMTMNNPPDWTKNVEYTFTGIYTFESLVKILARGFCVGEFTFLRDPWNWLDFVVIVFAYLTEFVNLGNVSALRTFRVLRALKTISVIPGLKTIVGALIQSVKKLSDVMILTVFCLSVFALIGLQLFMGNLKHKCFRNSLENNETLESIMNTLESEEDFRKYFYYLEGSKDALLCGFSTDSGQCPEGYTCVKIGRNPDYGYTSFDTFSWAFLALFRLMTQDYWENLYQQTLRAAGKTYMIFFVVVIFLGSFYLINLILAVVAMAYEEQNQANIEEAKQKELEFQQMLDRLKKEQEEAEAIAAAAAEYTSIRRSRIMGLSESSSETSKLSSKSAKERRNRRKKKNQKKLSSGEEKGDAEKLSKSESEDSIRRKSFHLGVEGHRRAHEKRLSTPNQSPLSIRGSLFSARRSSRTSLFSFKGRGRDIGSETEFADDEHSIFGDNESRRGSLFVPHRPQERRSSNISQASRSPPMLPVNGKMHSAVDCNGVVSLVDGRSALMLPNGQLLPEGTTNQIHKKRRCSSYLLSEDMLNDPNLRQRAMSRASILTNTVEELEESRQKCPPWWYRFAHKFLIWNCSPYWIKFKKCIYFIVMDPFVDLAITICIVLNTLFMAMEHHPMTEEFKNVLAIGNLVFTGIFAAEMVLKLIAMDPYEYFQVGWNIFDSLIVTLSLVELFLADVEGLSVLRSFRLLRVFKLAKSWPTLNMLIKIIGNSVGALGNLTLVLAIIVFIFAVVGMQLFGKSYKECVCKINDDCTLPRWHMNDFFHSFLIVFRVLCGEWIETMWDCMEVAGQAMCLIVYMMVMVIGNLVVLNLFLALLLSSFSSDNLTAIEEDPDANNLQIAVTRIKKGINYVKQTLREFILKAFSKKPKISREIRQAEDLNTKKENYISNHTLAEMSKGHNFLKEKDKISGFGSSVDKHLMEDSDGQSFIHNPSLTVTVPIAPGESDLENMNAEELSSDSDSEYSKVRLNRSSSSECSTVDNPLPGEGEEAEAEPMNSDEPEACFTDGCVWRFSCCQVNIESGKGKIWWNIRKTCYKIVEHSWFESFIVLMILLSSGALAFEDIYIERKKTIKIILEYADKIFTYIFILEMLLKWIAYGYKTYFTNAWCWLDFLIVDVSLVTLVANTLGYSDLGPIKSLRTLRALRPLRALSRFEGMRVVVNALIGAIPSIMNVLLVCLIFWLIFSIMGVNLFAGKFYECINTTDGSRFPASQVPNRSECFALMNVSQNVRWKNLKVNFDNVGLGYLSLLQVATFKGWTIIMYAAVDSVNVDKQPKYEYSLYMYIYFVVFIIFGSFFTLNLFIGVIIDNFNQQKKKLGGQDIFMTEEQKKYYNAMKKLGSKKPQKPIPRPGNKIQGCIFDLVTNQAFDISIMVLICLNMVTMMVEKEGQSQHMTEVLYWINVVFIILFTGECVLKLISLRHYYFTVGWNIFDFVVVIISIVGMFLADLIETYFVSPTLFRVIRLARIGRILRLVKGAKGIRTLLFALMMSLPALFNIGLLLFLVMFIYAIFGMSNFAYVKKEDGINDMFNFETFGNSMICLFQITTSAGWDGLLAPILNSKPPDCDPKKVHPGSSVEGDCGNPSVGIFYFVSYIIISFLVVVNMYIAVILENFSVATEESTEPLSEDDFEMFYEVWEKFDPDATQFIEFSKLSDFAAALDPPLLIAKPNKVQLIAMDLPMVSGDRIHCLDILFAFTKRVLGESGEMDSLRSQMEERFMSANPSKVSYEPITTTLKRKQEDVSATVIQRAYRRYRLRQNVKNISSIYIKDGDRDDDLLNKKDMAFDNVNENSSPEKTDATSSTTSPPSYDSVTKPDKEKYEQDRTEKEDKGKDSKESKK

First: O=C(Nc1ccc(C(F)(F)F)cc1)c1cc(N[C@H]2CCNC2=O)cc(-c2ccc3[nH]ccc3c2)n1 [Compound 88, (S)-6-(1H-indol-5-yl)-4-((2-oxopyrrolidin-3-yl)amino)-N-(4-(trifluoromethyl)phenyl)picolinamide]
Second: O=C(Nc1ccc(C(F)(F)F)cc1)c1cccc(-c2ccc3[nH]cc(C(=O)O)c3c2)n1 [Compound 139, 5-(6-((4-(trifluoromethyl)phenyl)carbamoyl)pyridin-2-yl)-1H-indole-3-carboxylic acid]
The IC50 of the first is lower: 4.89 ± 0.388 µM for the first, > 20 µM for the second.

`OC[C@@H](O)c1cccc(-c2ccc3nn(Cc4ccc(C(F)(F)F)cc4)cc3c2)n1` [Compound 108, (S)-1-(6-(2-(4-(trifluoromethyl)benzyl)-2H-indazol-5-yl)pyridin-2-yl)ethane-1,2-diol] and `OC[C@@H](O)c1cccc(-c2ccc3c(c2)ncn3Cc2ccc(C(F)(F)F)cc2)n1` [Compound 110, (S)-1-(6-(1-(4-(trifluoromethyl)benzyl)-1H-benzo[d]imidazol-5-yl)pyridin-2-yl)ethane-1,2-diol] are within 1.5-fold of each other in IC50: 4.68 ± 0.412 µM for the first, 3.44 ± 0.712 µM for the second.

Going from `OC[C@@H](O)c1cccc(-c2ccc3c(ccn3Cc3ccc(C(F)(F)F)cc3)c2)n1` [Compound 109, (S)-1-(6-(1-(4-(trifluoromethyl)benzyl)-1H-indol-5-yl)pyridin-2-yl)ethane-1,2-diol] to `NC(=O)[C@H](O)[C@@H](O)c1cccc(-c2ccc3c(ccn3Cc3ccc(C(F)(F)F)cc3)c2)n1` [Compound 151, (2R,3S)-2,3-dihydroxy-3-(6-(1-(4-(trifluoromethyl)benzyl)-1H-indol-5-yl)pyridin-2-yl)propanamide], the IC50 rises from 0.177 ± 0.005 µM to 0.773 ± 0.09 µM (4.4-fold).

Going from `O=S(=O)(N1CCCCC1)n1ccc2cc(-c3cccc([C@H](O)CO)n3)ccc21` [Compound 111, (S)-1-(6-(1-(piperidin-1-ylsulfonyl)-1H-indol-5-yl)pyridin-2-yl)ethane-1,2-diol] to `NC(=O)[C@H](O)[C@@H](O)c1cccc(-c2ccc3c(ccn3CC3CCCCC3)c2)n1` [Compound 152, (2R,3S)-3-(6-(1-(cyclohexylmethyl)-1H-indol-5-yl)pyridin-2-yl)-2,3-dihydroxypropanamide], the IC50 falls from 0.716 ± 0.073 µM to 0.402 ± 0.032 µM (1.8-fold). The second is the more potent here.

Going from `C[C@H](Nc1cc(C(N)=O)nc(-c2ccc3c(ccn3Cc3ccc(C(F)(F)F)cc3)c2)n1)C(N)=O` [Compound 112, (S)-6-((1-amino-1-oxopropan-2-yl)amino)-2-(1-(4-(trifluoromethyl)benzyl)-1H-indol-5-yl)pyrimidine-4-carboxamide] to `NC(=O)c1cc([C@H](O)CO)cc(-c2ccc3c(ccn3Cc3ccc(C(F)(F)F)cc3)c2)n1` [Compound 121, (S)-4-(1,2-dihydroxyethyl)-6-(1-(4-(trifluoromethyl)benzyl)-1H-indol-5-yl)picolinamide], the IC50 falls from 4.12 ± 0.525 µM to 2.37 ± 0.364 µM (1.7-fold).

Compared with `C[C@H](Nc1cc(C(N)=O)nc(-c2ccc3c(ccn3CC3CCCCC3)c2)n1)C(N)=O` [Compound 113, (S)-6-((1-amino-1-oxopropan-2-yl)amino)-2-(1-(cyclohexylmethyl)-1H-indol-5-yl)pyrimidine-4-carboxamide], `NC(=O)c1cccc(-c2ccc3c(c2)c(CN[C@H]2CCNC2=O)cn3CC2CCCCC2)n1` [Compound 145, (S)-6-(1-(cyclohexylmethyl)-3-(((2-oxopyrrolidin-3-yl)amino)methyl)-1H-indol-5-yl)picolinamide] is higher in IC50: 4.43 ± 0.541 µM for the first, 10 to 20 µM for the second. The first is the more potent here.

First: N#Cc1cc([C@@H](O)CO)cc(-c2ccc3c(ccn3Cc3ccc(C(F)(F)F)cc3)c2)n1 [Compound 119, (R)-4-(1,2-dihydroxyethyl)-6-(1-(4-(trifluoromethyl)benzyl)-1H-indol-5-yl)picolinonitrile]
Second: NC(=O)c1cc(-c2ccc3c(ccn3Cc3ccc(C(F)(F)F)cc3)c2)cc([C@@H](O)CO)n1 [Compound 122, (R)-6-(1,2-dihydroxyethyl)-4-(1-(4-(trifluoromethyl)benzyl)-1H-indol-5-yl)picolinamide]
The IC50 of the first is 2.9-fold higher: 5.09 ± 0.356 µM for the first, 1.74 ± 0.214 µM for the second.

Going from `CC(C)Cn1ccc2cc(-c3cc([C@H](O)CO)cc(C(N)=O)n3)ccc21` [Compound 124, (S)-4-(1,2-dihydroxyethyl)-6-(1-isobutyl-1H-indol-5-yl)picolinamide] to `CC(C)Cn1ccc2cc(-c3cc([C@@H](O)CO)cc(C(N)=O)n3)ccc21` [Compound 125, (R)-4-(1,2-dihydroxyethyl)-6-(1-isobutyl-1H-indol-5-yl)picolinamide], the IC50 rises from 4.92 ± 0.7 µM to > 20 µM.

First: CC(C)Cn1ccc2cc(-c3cc(C(N)=O)nc([C@H](O)CO)c3)ccc21 [Compound 126, (S)-6-(1,2-dihydroxyethyl)-4-(1-isobutyl-1H-indol-5-yl)picolinamide]
Second: CC(C)Cn1ccc2cc(-c3cccc([C@H](O)[C@@H](O)C(N)=O)n3)ccc21 [Compound 153, (2R,3S)-2,3-dihydroxy-3-(6-(1-isobutyl-1H-indol-5-yl)pyridin-2-yl)propanamide]
The IC50 of the first is 2.3-fold higher: 5.91 ± 0.536 µM for the first, 2.62 ± 0.071 µM for the second.

Compared with `Cn1cc(-c2cccc(C(F)(F)F)c2)c2cc(-c3cccc(C(N)=O)n3)ccc21` [Compound 129, 6-(1-methyl-3-(3-(trifluoromethyl)phenyl)-1H-indol-5-yl)picolinamide], `Cn1cc(-c2ccc(C(F)(F)F)cc2)c2cc(-c3cccc(C(N)=O)n3)ccc21` [Compound 130, 6-(1-methyl-3-(4-(trifluoromethyl)phenyl)-1H-indol-5-yl)picolinamide] is higher in IC50: 10 to 20 µM for the first, > 20 µM for the second. The first is the more potent here.

`CCN(CC)CCn1cc(-c2ccc(F)cc2)c2ccc(-c3cccc(C(N)=O)n3)cc21` [Compound 131, 6-(1-(2-(diethylamino)ethyl)-3-(4-fluorophenyl)-1H-indol-6-yl)picolinamide] and `NC(=O)c1cccc(-c2ccc3c(c2)c(C(N)=O)cn3Cc2ccc(C(F)(F)F)cc2)n1` [Compound 142, 5-(6-carbamoylpyridin-2-yl)-1-(4-(trifluoromethyl)benzyl)-1H-indole-3-carboxamide] cannot be ordered by IC50: > 20 µM for the first, > 20 µM for the second.

Compared with `Nc1cc(C(=O)Nc2ccc(C(F)(F)F)cc2)nc(-c2ccc3occc3c2)n1` [Compound 138, 6-amino-2-(benzofuran-5-yl)-N-(4-(trifluoromethyl)phenyl)pyrimidine-4-carboxamide], `NC(=O)c1c[nH]c2ccc(-c3cccc(C(=O)Nc4ccc(C(F)(F)F)cc4)n3)cc12` [Compound 140, 5-(6-((4-(trifluoromethyl)phenyl)carbamoyl)pyridin-2-yl)-1H-indole-3-carboxamide] is higher in IC50: 3.66 ± 2.4 µM for the first, > 20 µM for the second. The first is the more potent here.

`NC(=O)CC[C@H](NC(=O)c1c[nH]c2ccc(-c3cccc(C(=O)Nc4ccc(C(F)(F)F)cc4)n3)cc12)C(N)=O` [Compound 141, (S)-2-(5-(6-((4-(trifluoromethyl)phenyl)carbamoyl)pyridin-2-yl)-1H-indole-3-carboxamido)pentanediamide] and `C[C@H](NC(=O)c1cn(Cc2ccc(C(F)(F)F)cc2)c2ccc(-c3cccc(C(N)=O)n3)cc12)C(N)=O` [Compound 143, (S)-N-(1-amino-1-oxopropan-2-yl)-5-(6-carbamoylpyridin-2-yl)-1-(4-(trifluoromethyl)benzyl)-1H-indole-3-carboxamide] cannot be ordered by IC50: > 20 µM for the first, > 20 µM for the second.

For `NC(=O)c1cccc(-c2ccc3c(c2)c(CN[C@H]2CCNC2=O)cn3Cc2ccc(C(F)(F)F)cc2)n1` [Compound 144, (S)-6-(3-(((2-oxopyrrolidin-3-yl)amino)methyl)-1-(4-(trifluoromethyl)benzyl)-1H-indol-5-yl)picolinamide], the IC50 was 2.54 ± 0.181 µM.
